Laboratory results published in patent publication US20160264593A1 (priority 2013, published 2016).
Several values for one entry are separate records, joined by “and”; a condition that tells them apart may be missing. Equal values may be shown once. Read-outs that look alike come from different tables or passages of the source.

Tests used:
[1] = iv daily for 5 days, phase I; cited from earlier work
[2] = Pharmacokinetic study of 153 (and metabolite endothal) in SD rats, iv and po; plasma, liver, brain; format: in vivo
Experimental: The blood, liver and brain tissue samples were collected at predetermined times from rats. […] Compound were diluted shortly before use in 4% sodium bicarbonate for sterile injection (this is the standard pediatric solution of NaHCO3 with a pH of about 8.5).
Compound 153 was freshly prepared by diluting the drugs shortly before use in 4% sodium bicarbonate for sterile injection (this is the standard pediatric solution of NaHCO3 with a pH of about 8.5). The final concentrations of 153 solutions were 0.25 mg/mL. The 153 solutions were administered via iv or po route at dose volume of 5 ml/kg according to the latest body weight. Compound 157 was freshly prepared by diluting the drugs shortly before use in 4% sodium bicarbonate for sterile injection (this is the standard pediatric solution of NaHCO3 with a pH of about 8.5). The final concentrations of […] solutions were 0.3 mg/mL. The 157 solutions were administered via iv or po route at dose volume of 5 ml/kg according to the latest body weight.
Twelve (12) female SD rats per group were dosed by iv with 153 or 157. The rats were fasted overnight prior to dosing, with free access to water. Foods were withheld for 2 hours post-dose. Blood, liver and brain tissue samples in two animals each group were collected at each time point, within 10% of the scheduled time for each time point. Two extra animals were used for analytic method development.
Blood (>0.3 mL) were collected via aorta abdominalis in anaesthetic animals into tubes containing heparin at 15 min, 1, 2, 6, 10 and 24 hours after iv administration. Liver and brain tissues were collected immediately after animal death. The liver and brain tissues were excised and rinsed with cold saline to avoid blood residual. Upon collection, each sample was placed on ice and the blood samples were subsequently centrifuged (4° C., 11000 rpm, 5 min) to separate plasma. The obtained plasma, liver and brain tissue samples were stored at −70° C. until LC-MS/MS analysis.
Two (2) female SD rats per group were dosed by po with 153 or 157. The rats were fasted overnight prior to dosing, with free access to water. Foods were withheld for 2 hours post-dose. Blood samples (>0.3 mL) were collected via aorta abdominalis in anaesthetic animals into tubes containing heparin at 30 min, 1, 2, 6, 10 and 24 hours after po administration.
To each sample, 20 μL IS-D (for blank samples, 20 μL acetonitrile:water (1:1) was added) and 300 μl acetonitrile was added. The sample mixture was vortexed for approximately 3 min. After centrifugation at 10000 rpm for 5 min at 4° C., 100 μL of the upper layer was transferred to a new tube and added 200 μL 0.4% formic acid in water (pH 6.0). The mixture was vortexed for approximately 3 min before injected onto the LC/MS/MS system for analysis.
On the day of the assay, the frozen liver and brain samples were thawed unassisted at room temperature. An about 200 mg weighed sample of each thawed tissue was placed into a plastic tube with water (0.6 mL) to facilitate homogenization. Tissue processing was conducted using a homogenizer for approximately 1 min, 200 μl homogenate was transferred into a fresh Eppendorf tube. To each tube, 50 μL IS-D was added and mixed. Then 600 μl acetonitrile was added and the sample mixture was vortexed for approximately 3 min. After centrifugation at 10000 rpm for 5 min at 4° C., 400 μL of the upper layer was transferred to a new tube and evaporate the supernatant to dryness at 35° C. Reconstitute the residue with 200 μL of 0.4% formic acid in water (pH6.0), and vortex for 3 min, submit for LC-MS/MS analysis.
Frozen unknown plasma samples were completely thawed at room temperature and vortexed thoroughly. With a pipette, 50 μL of plasma was transferred into a 2.0 mL Eppendorf tube. 50 μL of 0.1N HCl and 800 μL ethyl acetate were added into each sample. The sample mixture was vortexed for approximately 3 min.

[3] = test system: glioblastoma (U-87) cells; test: WST cell viability assay, U-87 MG; format: cell-based; settings: for IC50: read-out: IC50 U-87 MG; for cytotoxicity against glioblastoma cells (statement): WST, U-87
[4] = test system: breast cancer (2LMP) cells; test: WST cell viability assay, 2LMP
From the text: (§2) IC50 values were obtained for cytotoxicity against breast cancer (2LMP), glioblastoma (U-87) and lung cancer (A549) cells (See Table 5 and FIGS. 3-5).

[5] = test system: breast cancer (2LMP) cells
From the text: as §2

lung cancer (A549) cells = test: WST cell viability assay, A549; format: cell-based; settings: for IC50: WST-20131028, read-out: IC50 A549; for cytotoxicity against lung cancer cells (statement): WST
PP2A [6] = test: PP2A immunoprecipitation phosphatase assay on mouse liver lysate, OA added to the reaction (positive control); format: biochemical, Balb/c mice
Experimental: (§1) Coomassie (Bradford) Protein Assay Kit (Pierce); PP2A Immunoprecipitation Phosphatase Assay Kit (Millipore); Lysate preparation for low endogenous phosphate: 20 mM imidazole-HCl, 2 mM EDTA, 2 mM EGTA, 1 mM PMSF, 1 mM benzamidine, 10 ug/ml each of aprotinin, leupeptin, antipain, soybean trypsin inhibitor; Normal Mouse IgG (Millipore); Okadaic acid (OA) (Tocris); DMSO (Sigma).
1. Mouse brain or liver was homogenized using lysis buffer (25 g/L), centrifuged at 12000 g for 10 minutes at […], and the supernatants were collected. 2. The protein was quantitated, and 240 μg of mouse brain or liver lysate was taken to assay phosphatase activity. 3. Added 4 μg of Anti-PP2A or 4 μg Normal mouse IgG as an IP control. 4. Added 30 μl Protein A agarose slurry. 5. Brought volume to 500 μl with pNPP Ser/Thr Assay Buffer. 6. Incubated for 2 h at 4° C. with constant rocking. 7. Washed beads 3 times with 700 μl TBS, followed by one wash with 500 μl Ser/Thr Assay Buffer. 8. Added 20 μl of Ser/Thr Assay Buffer. (In order to determine the linear range of PP2A amount for enzymatic reaction, different amounts of precipitated PP2A were used for subsequent phosphatase assay.) 9. Added 60 μl of diluted phosphopeptide (final concentration would be 750 μM) 10. Added OA (5 μM & 5 nM) or DMSO to the reaction system. 11. […]
14. […] Measured absorbance at a wavelength between […] in a microliter plate reader.

PP2A [7] = test: PP2A immunoprecipitation phosphatase assay on mouse brain lysate, OA added to the reaction (positive control); format: biochemical, Balb/c mice
Experimental: as §1
1. Mouse brain or liver was homogenized using lysis buffer (25 g/L), centrifuged at 12000 g for 10 minutes at […], and the supernatants were collected. 2. The protein was quantitated, and 240 μg of mouse brain or liver lysate was taken to assay phosphatase activity. 3. Added 4 μg of Anti-PP2A or 4 μg Normal mouse IgG as an IP control. 4. Added 30 μl Protein A agarose slurry. 5. Brought volume to 500 μl with pNPP Ser/Thr Assay Buffer. 6. Incubated for 2 h at 4° C. with constant rocking. 7. Washed beads 3 times with 700 μl TBS, followed by one wash with 500 μl Ser/Thr Assay Buffer. 8. Added 20 μl of Ser/Thr Assay Buffer. (In order to determine the linear range of PP2A amount for enzymatic reaction, different amounts of precipitated PP2A were used for subsequent phosphatase assay.) 9. Added 60 μl of diluted phosphopeptide (final concentration would be 750 μM) 10. Added OA (5 μM & 5 nM) or DMSO to the reaction system. 11. Incubated for 10 minutes at 30° C. in a shaking incubator. 12. Centrifuged briefly and transferred 25 μl into each well of the microliter plate to be used.
13. Added 100 μl of Malachite Green Phosphate Detection Solution AB.
14. Let color develop for 10-15 minutes at RT. 15. Measured absorbance at a wavelength between […] in a microliter plate reader.

[8] = End. in plasma after 153 1.25 mg/kg IV, Mean
[9] = End. in plasma after 153 1.25 mg/kg IV, rat 1
[10] = End. in plasma after 153 1.25 mg/kg IV, rat 2
[11] = End. in plasma after 153 1.25 mg/kg PO, Mean
[12] = End. in plasma after 153 1.25 mg/kg PO, rat 1
[13] = End. in plasma after 153 1.25 mg/kg PO, rat 2
[14] = Endothal in liver after single iv 153 1.25 mg/kg, Mean
[15] = Endothal in liver after single iv 153 1.25 mg/kg, rat 1
[16] = Endothal in liver after single iv 153 1.25 mg/kg, rat 2
[17] = read-out: IC50 2LMP, WST-20131015 (first value of the cell)
[18] = read-out: IC50 2LMP, WST-20131025 (second value of the cell)
[19] = 5 nM OA in the reaction, brain sample M1-1
[20] = 5 μM OA in the reaction, brain sample M1-1

C[C@@](O)(/C=C/[C@H]1CC=CC(=O)O1)[C@@H](C[C@@H](O)\C=C/C=C\C=C\CO)OP(=O)(O)O [fostriecin]
dose limiting toxicity [1]: not achieved
major toxicities [1]: reversible non-cumulative increases in serum creatinine and hepatic enzymes

O=C(O)C1C2CCC(O2)C1C(=O)O (stereo not shown) [End.]
AUC [2, 8]: 378 ng·h/mL
AUC0-∞ [2, 8]: 600 ng·h/mL
Cmax [2, 8]: 70.5 ng/mL
MRT (0-t) [2, 8]: 3.34 h
T1/2 [2, 8]: 5.2 h
Tmax [2, 8]: 1.13 h
AUC [2, 9]: 482 ng·h/mL
AUC0-∞ [2, 9]: 618 ng·h/mL
Cmax [2, 9]: 77.1 ng/mL
MRT (0-t) [2, 9]: 3.93 h
T1/2 [2, 9]: 4.37 h
Tmax [2, 9]: 2 h
AUC [2, 10]: 274 ng·h/mL
AUC0-∞ [2, 10]: 581 ng·h/mL
Cmax [2, 10]: 63.8 ng/mL
MRT (0-t) [2, 10]: 2.74 h
T1/2 [2, 10]: 6.02 h
Tmax [2, 10]: 0.25 h
AUC [2, 11]: 179 ng·h/mL
AUC0-∞ [2, 11]: 364 ng·h/mL
Cmax [2, 11]: 46.9 ng/mL
MRT (0-t) [2, 11]: 2.76 h
T1/2 [2, 11]: 5.49 h
Tmax [2, 11]: 0.75 h
AUC [2, 12]: 189 ng·h/mL
AUC0-∞ [2, 12]: 395 ng·h/mL
Cmax [2, 12]: 53.6 ng/mL
MRT (0-t) [2, 12]: 2.8 h
T1/2 [2, 12]: 5.53 h
Tmax [2, 12]: 1 h
AUC [2, 13]: 169 ng·h/mL
AUC0-∞ [2, 13]: 333 ng·h/mL
Cmax [2, 13]: 40.2 ng/mL
MRT (0-t) [2, 13]: 2.72 h
T1/2 [2, 13]: 5.45 h
Tmax [2, 13]: 0.5 h
MRT (0-t) [2, 14]: 3.24 h
T1/2 [2, 14]: 2.79 h
Tmax [2, 14]: 2 h
T1/2 [2, 15]: 3 h
Tmax [2, 15]: 2 h
MRT (0-t) [2, 16]: 3.43 h
T1/2 [2, 16]: 2.57 h
Tmax [2, 16]: 2 h

CCCCC/C=C/C/C=C/CCCCCCCCOC(=O)C1C2CCC(O2)C1C(=O)N1CCN(C)CC1 (stereo not shown) [Compound 158, 3-(4-Methylpiperazine-1-carbonyl)-7-oxa-bicyclo [2,2,1] heptane-2-carboxylic acid linoleyl ester]
IC50 ([3]; Homo sapiens, U-87 MG, WST-20131017 (first value of the cell)): 15.2 µM
IC50 ([3]; Homo sapiens, U-87 MG, WST-20131024 (second value of the cell)): 8.28 µM
cytotoxicity against glioblastoma cells (statement) [3]: cytotoxic
IC50 [4, 17]: 9.19 µM
IC50 [4, 18]: 12.8 µM
cytotoxicity against breast cancer cells (statement) [5]: cytotoxic
cytotoxicity relative to 100 (statement) [5]: increased cytotoxicity relative to 100
IC50 (lung cancer (A549) cells; Homo sapiens, A549): 8.74 µM
cytotoxicity against lung cancer cells (statement) (lung cancer (A549) cells; A549): cytotoxic

C=C1[C@@H](O)[C@@H]2O[C@]3(CC[C@H](/C=C/[C@@H](C)[C@@H]4CC(C)=C[C@@]5(O[C@H](C[C@@](C)(O)C(=O)O)CC[C@H]5O)O4)O3)CC[C@H]2O[C@@H]1[C@@H](O)C[C@H](C)[C@H]1O[C@@]2(CCCCO2)CC[C@H]1C [OA, Okadaic acid]
activity of PP2A in livers, positive control (statement) (PP2A [6]): significantly inhibited
Average Conc. (PP2A [7]; [19]): 270.60
Average Relative Activity (vehicle = 100) (PP2A [7]; [19]): 12.46
Conc. (phosphate, single reading) (PP2A [7]; [19]): 282.72 and 271.21
Mean Conc. (PP2A [7]; [19]): 276.96
Mean Conc. less IgG blank (PP2A [7]; [19]): 270.60
Relative Conc. (PP2A [7]; [19]): 0.12
Relative PP2A Activity (vehicle = 100) (PP2A [7]; [19]): 12.46
Average Conc. (PP2A [7]; [20]): −5.54
Average Relative Activity (vehicle = 100) (PP2A [7]; [20]): −0.38
Mean Conc. (PP2A [7]; [20]): 0.82
Mean Conc. less IgG blank (PP2A [7]; [20]): −5.54
Relative Conc. (PP2A [7]; [20]): 0.00
Relative PP2A Activity (vehicle = 100) (PP2A [7]; [20]): −0.38
activity of PP2A in brains, positive control (statement) (PP2A [7]; OA added to the reaction): significantly inhibited

CCCCCCCCCCCCCCCCCOC(=O)C1C2CCC(O2)C1C(=O)N1CCN(C)CC1 (stereo not shown) [Compound 159]
cytotoxicity against glioblastoma cells (statement) [3]: cytotoxic
IC50 ([3]; WST-20131017 (first value of the cell)): 5.41 µM
IC50 ([3]; WST-20131024 (second value of the cell)): 5.07 µM
cytotoxicity against breast cancer cells (statement) ([4]; WST, 2LMP): cytotoxic
cytotoxicity relative to 100 (statement) ([4]; cell line not specified (2LMP, U-87, A549 tested)): increased cytotoxicity relative to 100
IC50 [4, 17]: 4.66 µM
IC50 [4, 18]: 4.62 µM
cytotoxicity against lung cancer cells (statement) (lung cancer (A549) cells; A549): cytotoxic
IC50 (lung cancer (A549) cells): 4.71 µM
